Here are results for 14 compounds from patent publication US20250163059A1, “HETEROCYCLIC KINASE INHIBITORS” (Incyte Corporation, priority 2023, published 2025).

pIC50: −log10 of the molar value.

Assay [1] has as its target T1, catalytic domain (JH1) of JAK2 protein (Homo sapiens, UniProt O60674).
T1 construct: phosphorylated on the tyrosine residue by catalytic domain (JH1) of JAK2 protein; purchased BPS 40450
The experiment in a line: JAK2 (JH1) Enzymatic Assay at ATP=Km (30 μM), TR-FRET. In kind it is biochemical. Conditions: 30 μM ATP (=Km), 60 min at 25° C., read-out: V617F ENZ 30 μM. On the procedure: Example A. JAK2 (JH1) Enzymatic Assay at ATP=Km (30 μM)
Inhibitor potency was determined in TR-FRET assay, which measures HTRF signal generated as a result of Eu-labeled anti-phosphotyrosine antibody binding to Biotin-labeled peptide, phosphorylated on the tyrosine residue by catalytic domain (JH1) of JAK2 protein in the presence of ATP-Mg and Allophycocyanin-streptavidin (APC-SA). JH1 domain of JAK2 protein was purchased from BPS (#40450), Eu-W1204-labeled Anti-Phosphotyrosine Antibody (PY-20) and SureLight Allophycocyanin-streptavidin were purchased from PerkinElmer (#AD0067 and #AD0201). Peptide Biot-EQEDEPEGDYFEWLEES-amide (SEQ ID NO.: 1) was purchased from Quality Controlled Biochemicals, MA (Q307-166). Assay buffer consisted of 50 mM Tris, pH=7.5, 10 mM MgCl2, 0.01% Brij-35, 0.1% BSA, 1 mM EGTA, 5% Glycerol and 5 mM DTT. To assess the inhibition of the enzymatic activity, compound was serially diluted in DMSO and a volume of 0.1 μL was transferred to the wells of a black regular volume 384-well plate (Greiner #781076) using Echo Liquid Handler (Labcyte Inc.). Positive and Negative control wells contained 0.1 μL of DMSO.
Enzyme (catalytic domain JH1 of JAK2) was diluted in assay buffer, and the Multidrop Combi liquid handler (Thermo Scientific) was used to dispense 10 μL to each well (except positive control wells, to which 10 μL of assay buffer were dispensed instead of protein).
Plate was centrifuged and reaction was started by addition of 10 μL of substrate solution containing biotinylated peptide and ATP to all wells. Plate was again centrifuged and enzymatic reaction was allowed to proceed for 60 min. at 25° C. Final concentrations in the assay were as follows: 0.02 nM protein, 30 uM ATP, 0.5 uM biotinylated peptide. Reaction was stopped by addition of 10 μL of solution, containing 45 mM EDTA, 144 nM APC/225 nM Streptavidin, and 4.5 nM Eu-Ab in detection buffer: 50 mM Tris, pH=7.8, 150 mM NaCl, 0.5 mg/ml BSA.
Plate was centrifuged and incubated for 30 min. at room temperature. HTRF signal was measured on PHERAstar plate reader instrument (BMG Labtech) with excitation at 337 nm and emissions at 620 nm and 665 nm. Data analysis tools integrated in Genedata Screener software were used to analyze the results. Raw data was normalized to percent of vehicle (DMSO) Negative control, after subtracting no-enzyme Positive inhibitor control. The IC50 values were derived by fitting the data to a four parameter logistic equation producing a sigmoidal dose-response curve using the following equation: Y=Bottom+(Top−Bottom)/(1+10^((Log IC50−X)*Hill slope)) where X is the logarithm of inhibitor concentration and Y is the response.
(In general: In TR-FRET formats the signal depends on donor and acceptor labels being close together.)

Assay [2] concerns the target T2, pseudo-kinase domain (JH2) of human V617F mutant JAK2 (Homo sapiens, UniProt O60674, F794H/V617F/W659A/W777A).
T2 construct: pseudo-kinase domain (JH2, amino-acids 536-812 with 3 surface mutations W659A, W777A, F794H); purchased BPS Bioscience 79498; host or cells: baculovirus expression system
The experiment in a line: JAK2 LanthaScreen JH2-V617F Binding Assay. To be noted: 50 nM Fluorescent JAK2-JH2 Tracer, 1 hour at 25° C., read-out: JH2 BIND V617F. On the procedure: Example B. JAK2 LanthaScreen JH2-V617F Binding Assay
JAK2 JH2-V617F binding assay utilizes pseudo-kinase domain (JH2, amino-acids 536-812 with 3 surface mutations W659A, W777A, F794H) of human V617F mutant JAK2 expressed as C-terminal His-Avi-tagged, biotinylated protein in a baculovirus expression system (BPS Bioscience, Catalog #79498). The assay was conducted in black 384-well polystyrene plates in a final reaction volume of 20 μL. JAK2 JH2-V617F (0.26 nM) was incubated with compounds (100 nL serially diluted in DMSO) in the presence of 50 nM Fluorescent JAK2-JH2 Tracer (MedChem Express Catalog #HY-102055) and 0.25 nM Streptavidin-Tb cryptate (Cisbio Part #610SATLB) in assay buffer (50 mM Tris, pH=7.5, 10 mM MgCl2, 0.01% Brij-35, 0.1% BSA, 1 mM EGTA, 5% Glycerol and 5 mM DTT). Non-specific binding was accessed in the presence of 2 mM ATP. After incubation for 1 hour at 25° C., LanthaScreen signals were read on a PHERAstar FS plate reader (BMG LABTECH). Data was analyzed with IDBS XLfit and GraphPad Prism 5.0 software using a four parameter dose response curve to determine IC50 for each compound.

T2 sequence (O60674 536-812 V617F/W659A/W777A/F794H): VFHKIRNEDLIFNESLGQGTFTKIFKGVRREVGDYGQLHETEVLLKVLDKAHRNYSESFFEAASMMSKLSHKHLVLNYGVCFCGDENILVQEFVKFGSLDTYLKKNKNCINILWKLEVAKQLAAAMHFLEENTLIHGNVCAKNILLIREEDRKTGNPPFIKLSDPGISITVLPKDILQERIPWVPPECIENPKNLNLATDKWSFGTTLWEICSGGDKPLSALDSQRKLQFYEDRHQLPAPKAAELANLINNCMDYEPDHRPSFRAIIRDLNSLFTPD
T1 sequence (O60674 849-1124 limits assumed): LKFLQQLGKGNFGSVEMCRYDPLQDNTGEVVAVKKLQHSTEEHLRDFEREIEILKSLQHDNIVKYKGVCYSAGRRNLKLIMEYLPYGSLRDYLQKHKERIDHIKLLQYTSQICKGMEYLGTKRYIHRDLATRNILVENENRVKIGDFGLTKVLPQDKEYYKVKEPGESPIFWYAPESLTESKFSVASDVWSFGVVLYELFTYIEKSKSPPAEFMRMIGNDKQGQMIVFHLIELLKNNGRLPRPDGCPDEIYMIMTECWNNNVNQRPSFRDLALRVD

Regarding `CNc1ncc(-c2cccc(-c3cnn(C4CN(Cc5cccc(C(=O)N6CCCC6)n5)C4)c3)c2OC)c2cc(NC(=O)C3CC3)nnc12` [Example 15, N-(5-(2-Methoxy-3-(1-(1-((6-(pyrrolidine-1-carbonyl)pyridin-2-yl)methyl)azetidin-3-yl)-1H-pyrazol-4-yl)phenyl)-8-(methylamino)pyrido[3,4-c]pyridazin-3-yl)cyclopropane-carboxamide], the pIC50 was below 6.00 in assay [1] and at least 8.00 in assay [2].

Regarding `CNc1ncc(-c2cccc(-c3cnn(C4CCN(Cc5ccccn5)CC4)c3)c2OC)c2cc(NC(=O)C3CC3)ncc12` [Example 9, N-(5-(2-Methoxy-3-(1-(1-(pyridin-2-ylmethyl)piperidin-4-yl)-1H-pyrazol-4-yl)phenyl)-8-(methylamino)-2,7-naphthyridin-3-yl)cyclopropanecarboxamide], the pIC50 in assay [1] was below 6.00; in assay [2], 7.00 to 8.00.

Consider `CNc1ncc(-c2cccc(-c3cnn(C4CN(Cc5cccc(C(=O)N(C)C6CC6)n5)C4)c3)c2OC)c2cc(NC(=O)C3CC3)ncc12` [Example 2, 6-((3-(4-(3-(6-(Cyclopropane-carboxamido)-1-(methylamino)-2,7-naphthyridin-4-yl)-2-methoxyphenyl)-1H-pyrazol-1-yl)azetidin-1-yl)methyl)-N-cyclopropyl-N-methyl-picolinamide], for which the pIC50 in assay [1] is below 6.00; in assay [2] it was at least 8.00.

As for `COc1c(-c2cnn(C3CN(Cc4cccc(C(=O)N5CCOCC5)n4)C3)c2)cccc1-c1cnc(N)c2cnc(NC(=O)C3CC3)cc12` [Example 20, N-(8-amino-5-(2-methoxy-3-(1-(1-((6-(morpholine-4-carbonyl)pyridin-2-yl)methyl)azetidin-3-yl)-1H-pyrazol-4-yl)phenyl)-2,7-naphthyridin-3-yl)cyclopropane-carboxamide], the pIC50 in assay [1] is 6.30 to 7.00; in assay [2], at least 8.00.

With `CNc1ncc(-c2cccc(-c3cnn(C4CN(Cc5cccc(C(F)F)n5)C4)c3)c2OC)c2cc(NC(=O)C3CC3)ncc12` [Example 7, N-(5-(3-(1-(1-((6-(Difluoromethyl)pyridin-2-yl)methyl)azetidin-3-yl)-1H-pyrazol-4-yl)-2-methoxyphenyl)-8-(methylamino)-2,7-naphthyridin-3-yl)cyclopropanecarboxamide], the pIC50 in assay [1] is below 6.00; in assay [2] it was at least 8.00.

`COc1c(-c2cnn(C3CN(Cc4cccc(C(=O)N5CCC(F)(F)C5)n4)C3)c2)cccc1-c1cnc(N)c2cnc(NC(=O)C3CC3)cc12` [Example 19, N-(8-amino-5-(3-(1-(1-((6-(3,3-difluoro-pyrrolidine-1-carbonyl)pyridin-2-yl)methyl)azetidin-3-yl)-1H-pyrazol-4-yl)-2-methoxy-phenyl)-2,7-naphthyridin-3-yl)cyclopropane-carboxamide]: the values for the pIC50 in assay [1] and in assay [2] were 7.00 to 8.00 and at least 8.00, respectively.

For `CNc1ncc(-c2cccc(-c3cnn(C4CN(Cc5cccc(C(=O)N(C)CC(F)(F)F)n5)C4)c3)c2OC)c2cc(NC(=O)C3CC3)nnc12` [Example 14, 6-((3-(4-(3-(3-(Cyclopropane-carboxamido)-8-(methylamino)pyrido[3,4-c]pyridazin-5-yl)-2-methoxy-phenyl)-1H-pyrazol-1-yl)azetidin-1-yl)methyl)-N-methyl-N-(2,2,2-trifluoroethyl) picolinamide], the pIC50 was below 6.00 in assay [1] and at least 8.00 in assay [2].

Turning to `CNc1ncc(-c2cccc(-c3cnn(C4CN(Cc5cccc(C(=O)N(C)C)n5)C4)c3)c2OC)c2cc(NC(=O)C3CC3)nnc12` [Example 11, 6-((3-(4-(3-(3-(Cyclopropanecarboxamido)-8-(methylamino)pyrido[3,4-c]pyridazin-5-yl)-2-methoxyphenyl)-1H-pyrazol-1-yl)azetidin-1-yl)methyl)-N,N-dimethylpicolinamide], the pIC50 is below 6.00 in assay [1] and at least 8.00 in assay [2].

Take `CNc1ncc(-c2cccc(-c3cnn(C(C)C(=O)O)c3)c2OC)c2cc(NC(=O)C3CC3)ncc12` (stereo not shown) [Example 10, 2-(4-(3-(6-(Cyclopropanecarboxamido)-1-(methylamino)-2,7-naphthyridin-4-yl)-2-methoxyphenyl)-1H-pyrazol-1-yl)propanoic acid]: the pIC50 was below 6.00 in assay [1] and 7.00 to 8.00 in assay [2].

For the compound `COc1c(-c2cnn(C3CN(Cc4cccc(C(=O)N(C)C)n4)C3)c2)cccc1-c1cnc(N)c2cnc(NC(=O)C3CC3)cc12` [Example 16, 6-((3-(4-(3-(1-Amino-6-(cyclopropanecarboxamido)-2,7-naphthyridin-4-yl)-2-methoxyphenyl)-1H-pyrazol-1-yl)azetidin-1-yl)methyl)-N,N-dimethylpicolinamide], the pIC50 was 7.00 to 8.00 in assay [1] and at least 8.00 in assay [2].

With `COc1c(-c2cnn(C3CN(Cc4ccccn4)C3)c2)cccc1-c1cnc(N)c2cnc(NC(=O)C3CC3)cc12` [Example 21, N-(8-Amino-5-(2-methoxy-3-(1-(1-(pyridin-2-ylmethyl)azetidin-3-yl)-1H-pyrazol-4-yl)phenyl)-2,7-naphthyridin-3-yl)cyclopropanecarboxamide], the pIC50 in assay [1] is 6.30 to 7.00; in assay [2], at least 8.00.

Turning to `COC(=O)c1cccc(CN2CC(n3cc(-c4cccc(-c5cnc(NC(C)=O)c6cnc(NC(=O)C7CC7)cc56)c4OC)cn3)C2)n1` [Example 22, Methyl 6-((3-(4-(3-(1-acetamido-6-(cyclopropanecarboxamido)-2,7-naphthyridin-4-yl)-2-methoxyphenyl)-1H-pyrazol-1-yl)azetidin-1-yl)methyl)picolinate], the pIC50 in assay [1] is below 6.00; in assay [2], at least 8.00.

With `CNc1ncc(-c2cccc(-c3cnn(C4CN(CC56CCCC(C(=O)N(C)C)(C5)C6)C4)c3)c2OC)c2cc(NC(=O)C3CC3)ncc12` [Example 24, 5-((3-(4-(3-(6-(Cyclopropanecarboxamido)-1-(methylamino)-2,7-naphthyridin-4-yl)-2-methoxyphenyl)-1H-pyrazol-1-yl)azetidin-1-yl)methyl)-N,N-dimethylbicyclo[3.1.1]heptane-1-carboxamide], the values for the pIC50 in assay [1] and in assay [2] were below 6.00 and 7.00 to 8.00, respectively.

For the compound `CNc1ncc(-c2cccc(-c3cnn(C4CN(Cc5csc(C(=O)N(C)CC(F)(F)F)n5)C4)c3)c2OC)c2cc(NC(=O)C3CC3)ncc12` [Example 5, 4-((3-(4-(3-(6-(Cyclopropane-carboxamido)-1-(methylamino)-2,7-naphthyridin-4-yl)-2-methoxyphenyl)-1H-pyrazol-1-yl)azetidin-1-yl)methyl)-N-methyl-N-(2,2,2-trifluoroethyl) thiazole-2-carboxamide], the pIC50 in assay [1] is below 6.00; in assay [2], 7.00 to 8.00.
